Laboratory results from patent US6482951B2 (Hoffmann-La Roche Inc., priority 2000, dated 2002).

Target: T1, Human liver GK1 (GST-GK) (Homo sapiens, UniProt P35557)
T1 construct: made in house; host or cells: E. coli
T1 sequence (P35557 1-466 isoform P35557-2): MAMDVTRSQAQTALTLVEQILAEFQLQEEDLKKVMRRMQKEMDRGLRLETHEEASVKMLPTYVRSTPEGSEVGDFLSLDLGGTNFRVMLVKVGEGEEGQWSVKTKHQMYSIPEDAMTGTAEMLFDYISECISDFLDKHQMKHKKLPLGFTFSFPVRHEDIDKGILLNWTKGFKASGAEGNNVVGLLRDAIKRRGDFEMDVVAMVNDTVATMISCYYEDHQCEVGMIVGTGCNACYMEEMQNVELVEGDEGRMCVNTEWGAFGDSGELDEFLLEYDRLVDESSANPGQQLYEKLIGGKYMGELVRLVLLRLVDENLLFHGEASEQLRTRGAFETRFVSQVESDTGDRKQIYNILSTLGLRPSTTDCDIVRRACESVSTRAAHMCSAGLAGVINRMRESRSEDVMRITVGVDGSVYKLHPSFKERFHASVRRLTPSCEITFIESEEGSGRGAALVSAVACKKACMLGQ
Assay: In vitro glucokinase activity assay (G6PDH-coupled, NADH, OD 340 nm)
Format: biochemical
Conditions: 25° C., 5 mM D-glucose, 1 mM ATP, 10% DMSO, recombinant GST-GK
Protocol: Glucokinase Assay: Glucokinase (GK) was assayed by coupling the production of glucose-6-phosphate to the generation of NADH with glucose-6-phosphate dehydrogenase (G6PDH, 0.75-1 kunits/mg; Boehringer Mannheim, Indianapolis, Ind.) from Leuconostoc mesenteroides as the coupling enzyme (Scheme 2). Recombinant
Human liver GK1 was expressed in E. coli as a glutathione S-transferase fusion protein (GST-GK) [Liang et al, 1995] and was purified by chromatography over a glutathione-Sepharose 4B affinity column using the procedure provided by the manufacturer (Amersham Pharmacia Biotech, Piscataway, N.J.).
The assay was conducted at 25° C. in a flat bottom 96-well tissue culture plate from Costar (Cambridge, Mass.) with a final incubation volume of 120 μl. The incubation mixture contained: 25 mM Hepes buffer (pH, 7.1), 25 mM KCl, 5 mM D-glucose, 1 mM ATP, 1.8 mM NAD, 2 mM MgCl2, 1 μM sorbitol-6-phosphate, 1 mM dithiothreitol, test drug or 10% DMSO, 1.8 unit/ml G6PDH, and GK (see below). […]
After addition of enzyme, the increase in optical density (OD) at 340 nm was monitored over a 10 minute incubation period as a measure of GK activity. […] The GK activity in control wells was compared with the activity in wells containing test GK activators, and the concentration of activator that produced a 50% increase in the activity of GK, i.e., the SC1.5, was calculated.

| SC1.5 (concentration of activator that produced a 50% increase in the activity of GK) | Compound |
| --- | --- |
| 36 µM | O=C(Nc1nccs1)[C@@H](CC1CCCCC1)N1Cc2ccccc2C1=O [Example 9, (R)-3-cyclohexyl-2-(1-oxo-1,3-dihydro-isoindol-2-yl)-N-thiazol-2-yl-propionamide] |

System: C57BL/6J mice
Assay: Glucokinase activator in vivo screen (blood glucose after oral dosing)
Conditions: oral gavage 50 mg/kg, blood glucose at 0, 1, 2, 4, 6 h, active = significant (p ≦0.05) decrease for two consecutive time points
Protocol: Glucokinase Activator in vivo Screen Protocol: C57BL/6J mice are orally dosed via gavage with Glucokinase (GK) activator at 50 mg/kg body weight following a two hour fasting period. Blood glucose determinations are made five times during the six hour post-dose study period.
Mice (n=6) are weighed and fasted for a two hour period prior to oral treatment. GK activators are formulated at 6.76 mg/ml in Gelucire vehicle (Ethanol:Gelucire44/14:PEG400q.s. 4:66:30 v/w/v. Mice are dosed orally with 7.5 μl formulation per gram of body weight to equal to a 50 mg/kg dose. Immediately prior to dosing, a pre dose (time zero) blood glucose reading is acquired by snipping off a small portion of the animals tail (˜1 mm) and collecting 15 μl blood into a heparinized capillary tube for analysis. Following GK activator administration, additional blood glucose reading are takenat 1, 2, 4 and 6 hours post dose from the same tail wound. Results are interpreted by comparing the mean blood glucose values of six vehicle treated mice with six GK activator treated mice over the six hour study duration. Compounds are considered active when they exibit a statistically significant (p ≦0.05) decrease in blood glucose compared to vehicle for two consecutive assay time points.

| Compound | glucokinase activator in vivo activity (decrease in blood glucose compared to vehicle) |
| --- | --- |
| O=C(Nc1nccs1)[C@H](CC1CCCCC1)N1Cc2ccccc2C1=O [Example 1, (S)-3-cyclohexyl-2-(1-oxo-1,3-dihydro-isoindol-2-yl)-N-thiazol-2-yl-propionamide] | excellent glucokinase activator in vivo activity |
| O=C(Nc1ccncn1)[C@H](CC1CCCCC1)N1Cc2ccccc2C1=O [Example 14, 3-Cyclohexyl-2-(1-oxo-1,3-dihydro-isoindol-2-yl)-N-pyrimidin-4-yl-propionamide] | excellent glucokinase activator in vivo activity |
| O=C(Nc1cnccn1)[C@H](CC1CCCCC1)N1Cc2ccccc2C1=O [Example 15, (S)-3-Cyclohexyl-2-(1-oxo-1,3-dihydro-isoindol-2-yl)-N-pyrazin-2-yl-propionamide] | excellent glucokinase activator in vivo activity |
| O=C(Nc1ncc(Cl)s1)C(CC1CCCC1)N1Cc2ccccc2C1=O (centres unmarked) [Example 18, N-(5-Chloro-thiazol-2-yl)-3-cyclopentyl-2-(1-oxo-1,3-dihydro-isoindol-2-yl)-propionamide] | excellent glucokinase activator in vivo activity |
| O=C(Nc1ccc(Br)cn1)[C@H](CC1CCCCC1)N1Cc2ccccc2C1=O [Example 22, (S)-N-(5-Bromo-pyridin-2-yl)-3-cyclohexyl-2-(1-oxo-1,3-dihydro-isoindol-2-yl)-propionamide] | excellent glucokinase activator in vivo activity |
| O=C(Nc1nccs1)[C@H](CC1CCCCC1)N1Cc2c(F)cccc2C1=O [Example 23.1, (S)-3-Cyclohexyl-2-(4-fluoro-1-oxo-1,3-dihydro-isoindol-2-yl)-N-thiazol-2-yl-propionamide] | excellent glucokinase activator in vivo activity |
| O=C(Nc1cnccn1)[C@H](CC1CCCCC1)N1Cc2c(F)cccc2C1=O [Example 25.1] | excellent glucokinase activator in vivo activity |
| O=C(Nc1ccccn1)[C@H](CC1CCCCC1)N1Cc2ccccc2C1=O [Example 26, (S)-3-Cyclohexyl-2-(1-oxo-1,3-dihydro-isoindol-2-yl)-N-pyridin-2-yl-propionamide] | excellent glucokinase activator in vivo activity |
| Cc1ccc(NC(=O)[C@H](CC2CCCCC2)N2Cc3ccccc3C2=O)nc1 [Example 31, (S)-3-Cyclohexyl-2-(1-oxo-1,3-dihydro-isoindol-2-yl)-N-5-methyl-pyridin-2-yl-propionamide] | excellent glucokinase activator in vivo activity |
| O=C(Nc1ccc(Cl)cn1)[C@H](CC1CCCCC1)N1Cc2ccccc2C1=O [Example 33, (S)-3-Cyclohexyl-2-(1-oxo-1,3-dihydro-isoindol-2-yl)-N-5-chloro-pyridin-2-yl-propionamide] | excellent glucokinase activator in vivo activity |
